Experiment [1] has as its system aspartate/glutamate co-transport system (L-Aspl cells). Put plainly: D-[3H]aspartate uptake by L-Aspl cells. The class given is cell-based, human. How it is done: Kinetic analyses of D-[^3 H] […] Asp. […] Asp uptake.
The specificity of the high-affinity transport mechanism in L-Aspl cells also was examined. […] Asp.
The high-affinity transport system in L-Aspl cells was also analyzed in terms of its relative sensitivity to compounds specific for various subtypes of excitatory amino acid (EAA) receptors.
A series of known inhibitors of high-affinity D-Asp uptake systems (including L-cysteic acid (L-CA), L-cysteine sulfinic acid (L-CSA), aminophosphonoproprionic acid (APPA) and D-threoaspartic acid (THAA)) were also tested for their effects on D-[^3 H] Asp uptake by L-Aspl cells.

Experiment [2] has as its system human L-glutamate transporter (L-Glul cells). Put plainly: L-[3H]glutamate uptake by L-Glul cells. The class given is cell-based. Conditions: unlabelled neurotransmitters, EAA receptor ligands, co-transporter inhibitors. How it is done: Both L-Glul and L-M cells were assessed for their kinetic properties of [^3 H] Glu uptake, and the results were analyzed by fitting to Michaelis-Menten kinetics. This was done by incubating cells with differing concentrations of [^3 H] Glu (ranging from 0.05 to 2 μM) for 10 minutes, at both 37° C. and 0° C. The amount of [^3 H] Glu retained by the cells following incubation was then quantitated and converted (using the manufacturer's specific activity for [^3 H] Glu to the corresponding picomole-equivalent of the radioligand, for each concentration of radioligand at each temperature. Then, the pmol value is normalized by the length of incubation and the amount of protein corresponding to the number of cells assayed. The resulting value, expressed in units of pmol/min/mg protein, is the initial velocity value for each concentration of [^3 H] Glu at each temperature. The initial velocity measured at 37° C. represents total initial velocity; the initial velocity measured at 0° C. represents nonspecific initial velocity. The difference between these two velocity values is then the specific initial velocity, denoted by "V", for each concentration of [^3 H] Glu.
Various drugs specific for excitatory amino acid (EAA) receptor subtypes were assessed for their effects on [^3 H] Glu uptake by L-Glul cells.
Glu uptake by L-Glul cells.

The test system of experiment [3] is GABA transporter (L-GAB1 cells). Put plainly: [3H]GABA uptake by L-GAB1 cells. The class given is cell-based, human. To be noted: competitor at 100-fold excess relative to [3H]GABA. How it is done: Using concentrations of [^3 H] GABA ranging from 2 to 500 μM, the kinetic profile of GABA uptake was determined for both L-GAB1 and L-M cells. The initial velocity of GABA uptake was measured and plotted against the corresponding [^3 H] GABA concentration for both cell lines. […] The velocity profile for L-GAB1 cells was subtracted by that of L-M cells, and the resulting data used for a double-reciprocal plot of velocity-^1 against GABA concentration-^1. The velocity profile for L-M cells was also transformed into a double-reciprocal plot.
Several known inhibitors of high-affinity GABA uptake were used to examine their efficacies in inhibiting [^3 H] GABA uptake by L-GAB1 cells. […] Each of these agents was used at several concentrations ranging from 1 to 100 μM in assays of [^3 H] GABA uptake by L-GAB1 cells. […] GABA uptake by L-GAB1 cells.
L-GAB1 cells were also analyzed in terms of their ligand-specificity in the high-affinity GABA uptake mechanism.

The test system of the next experiment is Rat Synaptosomes. To be noted: literature values; read-out: Representative IC50, Rat Synaptosomes; cited from earlier work.
Experiment [4] has as its target T1, human 5HT transporter (L-S2 cells) (Homo sapiens, UniProt P31645).
T1 construct: expressed in transfected cells; host or cells: mouse L-M fibroblasts (ATCC CCL 1.2) transfected with total human genomic DNA and pSV2neo; clone L-S2
Put plainly: [3H]-5-HT uptake by L-S2 cells. The class given is cell-based. How it is done: L-S1 and L-M cells were preplated into 96-well culture plates. For uptake assays, the growth medium was removed from each well and the cells rinsed several times with oxygenated Ringer's buffer supplemented with 0.5 mM pargyline and 0.5 mM ascorbate. […] The radioligand was added to a final concentration of 0.1 μM and incubated with the cells at 37° C. for 40 minutes. The incubation mixture was then removed and each well was washed three times at room temperature with Ringer's buffer. The cells remaining in the wells were lysed with 1% sodium dodecyl sulphate (SDS) and transferred to counting vials containing 5 ml of ACS scintillant (Amersham), for liquid scintillation spectrometry. For each assay, 6-8 parallel sets of wells were assayed simultaneously.
(§1) Non-specific activity was determined from parallel assays carried out at 0° C. Initial velocities were calculated in terms of pmol/mg protein/min by subtracting velocity values obtained at 0° C. from those obtained at 37° C.
(§2) Cells were assayed in the presence of each inhibitor for 40 minutes at 37° C., washed with Ringer's buffer and prepared for counting as previously described. Five confluent wells were assayed at each inhibitor concentration. The IC50 value for each inhibitor was determined by plotting the percent activity against the logarithm of inhibitor concentration. Measured levels of uptake in the presence of inhibitors were expressed as the percentage of maximal uptake (100 %) in the absence of inhibitor.

Experiment [5] addresses T2, human 5HT transporter (L-S1 cells) (Homo sapiens, UniProt P31645).
T2 construct: expressed in transfected cells; host or cells: mouse L-M fibroblasts (ATCC CCL 1.2) transfected with total human genomic DNA and pSV2neo; clone L-S1
Put plainly: [3H]-5-HT uptake by L-S1 cells. The class given is cell-based. As for the experimental part:
The cells were incubated at 37° C. for an additional 40 min.
L-S1 and L-M cells were preplated into 96-well culture plates. For uptake assays, the growth medium was removed from each well and the cells rinsed several times with oxygenated Ringer's buffer supplemented with 0.5 mM pargyline and 0.5 mM ascorbate. […] […] […] The cells remaining in the wells were lysed with 1% sodium dodecyl sulphate (SDS) and transferred to counting vials containing 5 ml of ACS scintillant (Amersham), for liquid scintillation spectrometry. For each assay, 6-8 parallel sets of wells were assayed simultaneously.
as §1, §2

Setting [6] is: ligand 10 μM, 10 min preincubation, 0.1 μM [3H]-5HT, 40 min, 37° C. (FIG. 1).

Like-named read-outs stand apart in the source and are kept apart here.

What is called IC50 is the concentration needed to halve the response being measured.

T1 sequence (P31645 whole entry): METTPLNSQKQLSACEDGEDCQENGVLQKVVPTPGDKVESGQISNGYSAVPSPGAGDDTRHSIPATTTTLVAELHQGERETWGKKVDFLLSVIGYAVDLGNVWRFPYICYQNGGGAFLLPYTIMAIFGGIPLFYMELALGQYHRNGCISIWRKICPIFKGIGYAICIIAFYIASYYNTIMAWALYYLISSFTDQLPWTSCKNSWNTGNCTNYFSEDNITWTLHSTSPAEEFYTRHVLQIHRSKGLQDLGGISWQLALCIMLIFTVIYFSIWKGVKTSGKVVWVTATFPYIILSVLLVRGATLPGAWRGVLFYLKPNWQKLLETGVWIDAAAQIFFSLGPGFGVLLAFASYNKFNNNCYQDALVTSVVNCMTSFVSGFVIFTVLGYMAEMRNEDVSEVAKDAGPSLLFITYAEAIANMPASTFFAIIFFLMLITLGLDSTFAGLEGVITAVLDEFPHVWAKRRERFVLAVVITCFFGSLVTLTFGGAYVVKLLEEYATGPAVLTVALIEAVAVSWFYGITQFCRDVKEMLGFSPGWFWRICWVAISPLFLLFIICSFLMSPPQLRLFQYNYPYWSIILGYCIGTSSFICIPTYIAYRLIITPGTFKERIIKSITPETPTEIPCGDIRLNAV
T2 sequence (P31645 whole entry): as above

`N[C@@H](C(=O)O)[C@@H](O)C(=O)O` [THAA, D-threoaspartic acid]: in experiment [1], the “effect on D-[3H]Asp uptake by L-Aspl cells” value (from here on “effect on D-[3H]Asp uptake”) is “potent inhibitory effects”.

For `NC(CCP(=O)(O)O)C(=O)O` (centres unmarked) [AP4, 2-amino-4-phosphonobutyric acid], the “effect on [3H]Glu uptake by L-Glul cells” value in experiment [2] is “without effect”.

For the compound `C[C@H](N)C(=O)O` [L-alanine], the “ligand-specificity of [3H]GABA uptake by L-GAB1 cells” value (“ligand-specificity of [3H]GABA uptake” below) in experiment [3] is “somewhat sensitive”.

Take `CN[C@H](CC(=O)O)C(=O)O` [NMDA, N-methyl-D-aspartic acid]: in experiment [2], the “effect on [3H]Glu uptake by L-Glul cells” value was “without effect”. Besides, in experiment [1], the “effect on D-[3H]Asp uptake” value is “without effect”.

Consider `NC[C@H](O)c1ccc(O)c(O)c1` [Norepinephrine, norepinephrine], for which the “effect on [3H]Glu uptake by L-Glul cells” value in experiment [2] is “only unlabelled L-glutamate seems to mediate some inhibition”. Moreover, the “ligand-specificity of [3H]GABA uptake” value in experiment [3] was “not inhibited”. Also, the IC50 with Rat Synaptosomes was over 10 µM.

For `N[C@@H](CS(=O)O)C(=O)O` [L-CSA, L-cysteine sulfinic acid], the “effect on D-[3H]Asp uptake” value in experiment [1] is listed as “potent inhibitory effects”.

In the case of `N[C@@H](Cc1ccccc1)C(=O)O` [phenylalanine], the “effect of competing ligand on [3H]-5HT uptake, L-S2” value (from here on “effect of competing ligand … L-S2”) in experiment [4] (setting [6]) was “nor the amino acid substrates for catecholamine synthesis, phenylalanine and tyrosine, inhibited uptake of 5-HT”. For the same compound, the “ligand-specificity of [3H]GABA uptake” value in experiment [3] is reported as “not sensitive”. For the same compound, the “effect of competing ligand on [3H]-5HT uptake, L-S1” value (from here on “effect of competing ligand … L-S1”) in experiment [5] (setting [6]) is “nor the amino acid substrates for catecholamine synthesis, phenylalanine and tyrosine, inhibited uptake of 5-HT”.

`N[C@@H](CS(=O)(=O)O)C(=O)O` [L-CA, L-cysteic acid]: in experiment [1], the “effect on D-[3H]Asp uptake” value was “potent inhibitory effects”.

Regarding `O=C(O)[C@@H]1CCCN1` [proline], in experiment [3], the “ligand-specificity of [3H]GABA uptake” value is “not sensitive”.

Regarding `N=C(N)NCCC[C@H](N)C(=O)O` [L-arginine], in experiment [3], the “ligand-specificity of [3H]GABA uptake” value was “somewhat sensitive”.

Turning to `NC(CS(=O)O)C(=O)O` (centres unmarked) [cysteine sulfinate], in experiment [2], the “effect on [3H]Glu uptake by L-Glul cells” value is given as “no effect”.

For the compound `N[C@@H](Cn1oc(=O)[nH]c1=O)C(=O)O` [quisqualate], the “effect on [3H]Glu uptake by L-Glul cells” value in experiment [2] is “potent inhibitor”. Moreover, in experiment [1], the “effect on D-[3H]Asp uptake” value is “without effect”.

`N[C@@H](Cc1c[nH]c2ccccc12)C(=O)O` [tryptophan]: the “effect of competing ligand … L-S2” value in experiment [4] (setting [6]) is “Neither tryptophan, the amino acid precursor of serotonin, nor the amino acid substrates for catecholamine synthesis, phenylalanine and tyrosine, inhibited uptake of 5-HT”. For the same compound, in experiment [3], the “ligand-specificity of [3H]GABA uptake” value was “not sensitive”. Further, the “effect of competing ligand … L-S1” value in experiment [5] (setting [6]) is “Neither tryptophan, the amino acid precursor of serotonin, nor the amino acid substrates for catecholamine synthesis, phenylalanine and tyrosine, inhibited uptake of 5-HT”.

`COc1ccc2[nH]cc(CCNC(C)=O)c2c1` [N-Acetyl-5-methoxytryptamine, N-acetyl-5-methoxytryptamine]: the IC50 in the experiment on Rat Synaptosomes is 66 µM.

As for `NCCCC[C@H](N)C(=O)O` [lysine], in experiment [3], the “ligand-specificity of [3H]GABA uptake” value was “not sensitive”.

Regarding `CNC[C@H](O)c1ccc(O)c(O)c1` [epinephrine], in experiment [3], the “ligand-specificity of [3H]GABA uptake” value is listed as “not inhibited”.

`CCOC(=O)CC[C@H](N)C(=O)OCC` [DEEG, glutamate diethylester]: in experiment [1], the “effect on D-[3H]Asp uptake” value is “without effect”.

`N[C@H](CCS(=O)(=O)O)C(=O)O` [D-homocysteic acid]: the “effect on [3H]Glu uptake by L-Glul cells” value in experiment [2] is recorded as “without effect”.

For methyl-glutamylphosphonic acid [MGPA], the “effect on [3H]Glu uptake by L-Glul cells” value in experiment [2] is “without effect”.

Turning to `N[C@@H](Cc1ccc(O)cc1)C(=O)O` [tyrosine], the “effect of competing ligand … L-S2” value in experiment [4] was “nor the amino acid substrates for catecholamine synthesis, phenylalanine and tyrosine, inhibited uptake of 5-HT”. Also, the “ligand-specificity of [3H]GABA uptake” value in experiment [3] is recorded as “not sensitive”. In experiment [5], the “effect of competing ligand … L-S1” value is “nor the amino acid substrates for catecholamine synthesis, phenylalanine and tyrosine, inhibited uptake of 5-HT”.

For the compound dihydroxykainate, the “effect on D-[3H]Asp uptake” value in experiment [1] is reported as “significant inhibition”.

Turning to `NCCc1ccc(O)c(O)c1` [dopamine], the “effect on [3H]Glu uptake by L-Glul cells” value in experiment [2] was “only unlabelled L-glutamate seems to mediate some inhibition”.

As for `N[C@@H](CCS(=O)(=O)O)C(=O)O` [LHCA, L-homocysteic acid], the “effect on D-[3H]Asp uptake” value in experiment [1] was “without effect”.

On to `N[C@H](C(=O)O)c1cc(=O)[nH]o1` [ibotenic acid], for which the “effect on [3H]Glu uptake by L-Glul cells” value in experiment [2] was “without effect”.

For the compound `NC(CCCP(=O)(O)O)C(=O)O` (centres unmarked) [APV, 2-amino-5-phosphonovaleric acid], the “effect on [3H]Glu uptake by L-Glul cells” value in experiment [2] was “without effect”.

For `NC(CP(=O)(O)O)C(=O)O` (centres unmarked) [APPA, aminophosphonoproprionic acid], the “effect on D-[3H]Asp uptake” value in experiment [1] was “moderate in inhibitory potency”.

In the case of `N[C@@H](CO)C(=O)O` [serine], in experiment [3], the “ligand-specificity of [3H]GABA uptake” value was “not sensitive”.

Consider `N[C@@H](CS)C(=O)O` [L-cysteine], for which the “effect on D-[3H]Asp uptake” value in experiment [1] is “slight and not statistically significant”.

Regarding `N[C@@H](CS(=O)(=O)O)C(=O)O` [cysteic acid], the “effect on [3H]Glu uptake by L-Glul cells” value in experiment [2] is on record as “only unlabelled L-glutamate seems to mediate some inhibition”.

On to `NCCS(=O)(=O)O` [taurine], for which the “effect on [3H]Glu uptake by L-Glul cells” value in experiment [2] is reported as “only unlabelled L-glutamate seems to mediate some inhibition”. In experiment [1], the “effect on D-[3H]Asp uptake” value is “slight and not statistically significant”.

As to `NC(CCCC(=O)O)C(=O)O` (centres unmarked) [AAA, a-aminoadipic acid], the “effect on D-[3H]Asp uptake” value in experiment [1] is listed as “virtually without inhibitory effect”.

For the compound `C=C(C)[C@H]1CN[C@H](C(=O)O)[C@H]1CC(=O)O` [kainic acid], the “effect on [3H]Glu uptake by L-Glul cells” value in experiment [2] is listed as “without effect”. Moreover, the “effect on D-[3H]Asp uptake” value in experiment [1] is on record as “significant inhibition”.

Regarding `N[C@H](CCC(=O)NCS(=O)(=O)O)C(=O)O` [GAMS], in experiment [2], the “effect on [3H]Glu uptake by L-Glul cells” value was “without effect”.

As to `NC(=O)CC[C@H](N)C(=O)O` [L-glutamine], the “effect on D-[3H]Asp uptake” value in experiment [1] is “slight and not statistically significant”.

For `Cc1onc(O)c1CC(N)C(=O)O` [AHMIP, D-amino-3-hydroxy-5-methyl-4-isoxazoneproprionic acid], the “effect on [3H]Glu uptake by L-Glul cells” value in experiment [2] is “no inhibitory effect”.

Values taken from US5424185A, “Human high-affinity neurotransmitter uptake system” (Baylor College of Medicine, priority 1990, dated 1995).
